Test results: ChEMBL document CHEMBL3991601, “The target landscape of clinical kinase drugs” (Science, 2017)
Active and inactive are the calls of the source. Rule as the data show it, for most assays here: actives have a measured Kd and inactives only a lower limit.

Key:
TGF-beta receptor type-1 = target: T1, TGF-beta receptor type-1 (Homo sapiens, UniProt P36897)
T1 sequence (P36897 whole entry): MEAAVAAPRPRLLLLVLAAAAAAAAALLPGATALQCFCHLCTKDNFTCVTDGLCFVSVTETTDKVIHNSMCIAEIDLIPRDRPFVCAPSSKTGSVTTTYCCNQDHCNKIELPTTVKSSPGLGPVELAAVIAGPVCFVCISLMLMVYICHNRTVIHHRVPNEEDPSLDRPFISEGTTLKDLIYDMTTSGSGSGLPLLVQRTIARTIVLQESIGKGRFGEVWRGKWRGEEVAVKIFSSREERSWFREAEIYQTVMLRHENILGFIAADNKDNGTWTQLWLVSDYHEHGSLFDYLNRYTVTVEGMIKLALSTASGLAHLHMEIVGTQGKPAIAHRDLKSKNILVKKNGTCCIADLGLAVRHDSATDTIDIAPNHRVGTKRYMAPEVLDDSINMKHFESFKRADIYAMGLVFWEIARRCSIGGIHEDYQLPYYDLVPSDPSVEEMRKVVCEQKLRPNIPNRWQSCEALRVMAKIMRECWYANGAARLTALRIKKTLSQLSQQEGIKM

[1] = target: Casein kinase I isoform alpha (Homo sapiens, UniProt P48729)
[2] = target: T2, cGMP-dependent protein kinase 1 (Homo sapiens, UniProt Q13976)
T2 sequence (Q13976 whole entry): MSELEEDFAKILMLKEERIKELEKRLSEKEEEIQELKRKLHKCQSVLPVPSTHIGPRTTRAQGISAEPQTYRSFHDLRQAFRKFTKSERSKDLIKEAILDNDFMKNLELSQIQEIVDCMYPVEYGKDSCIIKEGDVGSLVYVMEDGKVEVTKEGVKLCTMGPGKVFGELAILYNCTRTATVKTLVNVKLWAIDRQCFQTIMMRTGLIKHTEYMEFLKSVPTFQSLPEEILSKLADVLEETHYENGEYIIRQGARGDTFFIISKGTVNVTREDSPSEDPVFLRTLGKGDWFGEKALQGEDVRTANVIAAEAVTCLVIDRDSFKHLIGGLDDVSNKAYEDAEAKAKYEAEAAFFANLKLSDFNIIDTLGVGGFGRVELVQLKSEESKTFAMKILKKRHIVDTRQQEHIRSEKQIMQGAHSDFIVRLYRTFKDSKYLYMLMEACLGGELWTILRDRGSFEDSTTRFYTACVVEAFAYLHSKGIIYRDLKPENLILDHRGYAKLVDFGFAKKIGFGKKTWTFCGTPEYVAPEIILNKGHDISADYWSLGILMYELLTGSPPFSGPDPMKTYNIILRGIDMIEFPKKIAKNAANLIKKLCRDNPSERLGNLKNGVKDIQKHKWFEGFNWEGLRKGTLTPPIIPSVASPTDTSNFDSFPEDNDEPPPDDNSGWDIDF

[3] = target: T3, Non-receptor tyrosine-protein kinase TNK1 (Homo sapiens, UniProt Q13470)
T3 sequence (Q13470 whole entry): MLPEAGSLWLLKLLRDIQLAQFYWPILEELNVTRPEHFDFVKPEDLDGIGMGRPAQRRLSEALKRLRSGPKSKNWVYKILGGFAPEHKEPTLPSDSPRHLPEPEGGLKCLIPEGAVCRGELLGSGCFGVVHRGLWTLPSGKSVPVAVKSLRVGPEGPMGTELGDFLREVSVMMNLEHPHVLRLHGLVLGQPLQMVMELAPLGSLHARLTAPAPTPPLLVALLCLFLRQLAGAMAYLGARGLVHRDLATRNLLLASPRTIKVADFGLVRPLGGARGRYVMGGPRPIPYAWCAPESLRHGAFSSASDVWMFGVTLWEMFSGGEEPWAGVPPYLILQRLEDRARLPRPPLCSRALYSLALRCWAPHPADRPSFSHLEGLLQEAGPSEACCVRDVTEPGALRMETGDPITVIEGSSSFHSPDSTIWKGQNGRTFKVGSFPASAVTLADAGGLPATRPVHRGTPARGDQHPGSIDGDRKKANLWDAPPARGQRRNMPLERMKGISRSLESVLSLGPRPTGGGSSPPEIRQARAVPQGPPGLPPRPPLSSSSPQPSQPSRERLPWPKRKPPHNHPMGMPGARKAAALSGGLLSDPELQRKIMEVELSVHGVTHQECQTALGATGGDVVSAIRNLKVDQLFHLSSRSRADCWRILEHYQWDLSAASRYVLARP

[4] = target: 26S proteasome regulatory subunit 6B (Homo sapiens, UniProt P43686)
[5] = target: Mitogen-activated protein kinase kinase kinase 20 (Homo sapiens, UniProt Q9NYL2)
[6] = target: T4, DNA replication licensing factor MCM4 (Homo sapiens, UniProt P33991)
T4 sequence (P33991 whole entry): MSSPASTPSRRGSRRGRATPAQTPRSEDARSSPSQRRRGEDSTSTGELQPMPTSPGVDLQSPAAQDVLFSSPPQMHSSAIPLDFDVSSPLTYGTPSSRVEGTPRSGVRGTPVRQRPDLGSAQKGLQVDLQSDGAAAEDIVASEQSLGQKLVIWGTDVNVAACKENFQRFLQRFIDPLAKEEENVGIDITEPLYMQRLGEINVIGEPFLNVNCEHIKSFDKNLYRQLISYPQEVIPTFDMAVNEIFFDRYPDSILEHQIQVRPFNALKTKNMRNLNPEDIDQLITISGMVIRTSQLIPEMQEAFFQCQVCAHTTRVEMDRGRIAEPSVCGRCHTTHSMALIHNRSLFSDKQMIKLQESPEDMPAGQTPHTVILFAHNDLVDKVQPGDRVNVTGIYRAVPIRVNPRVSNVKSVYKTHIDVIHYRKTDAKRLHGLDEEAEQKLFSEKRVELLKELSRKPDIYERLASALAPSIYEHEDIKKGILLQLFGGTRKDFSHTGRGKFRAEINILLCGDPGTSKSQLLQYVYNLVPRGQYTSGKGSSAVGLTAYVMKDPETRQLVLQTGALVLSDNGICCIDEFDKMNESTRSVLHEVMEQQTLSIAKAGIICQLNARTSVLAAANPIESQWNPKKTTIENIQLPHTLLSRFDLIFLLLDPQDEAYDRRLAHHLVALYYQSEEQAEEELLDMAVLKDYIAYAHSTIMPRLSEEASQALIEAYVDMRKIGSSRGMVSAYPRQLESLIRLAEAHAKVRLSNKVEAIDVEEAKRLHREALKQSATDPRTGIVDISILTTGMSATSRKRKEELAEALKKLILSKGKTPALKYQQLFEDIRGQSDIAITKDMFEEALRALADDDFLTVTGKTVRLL
Also: in the data inactive means no Kd found up to 30 µM.

26S proteasome regulatory subunit 6B, sequence (P43686 whole entry): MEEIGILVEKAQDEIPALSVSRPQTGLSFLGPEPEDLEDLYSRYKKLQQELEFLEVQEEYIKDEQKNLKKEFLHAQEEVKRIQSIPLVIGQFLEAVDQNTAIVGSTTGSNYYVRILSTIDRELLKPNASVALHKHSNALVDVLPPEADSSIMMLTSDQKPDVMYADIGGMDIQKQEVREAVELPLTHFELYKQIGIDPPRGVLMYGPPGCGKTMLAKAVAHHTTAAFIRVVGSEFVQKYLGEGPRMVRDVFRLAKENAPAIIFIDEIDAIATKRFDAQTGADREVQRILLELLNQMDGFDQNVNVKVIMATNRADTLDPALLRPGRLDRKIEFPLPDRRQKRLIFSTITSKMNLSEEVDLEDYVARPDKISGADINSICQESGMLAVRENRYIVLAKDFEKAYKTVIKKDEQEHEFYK
Casein kinase I isoform alpha, sequence (P48729 whole entry, canonical isoform): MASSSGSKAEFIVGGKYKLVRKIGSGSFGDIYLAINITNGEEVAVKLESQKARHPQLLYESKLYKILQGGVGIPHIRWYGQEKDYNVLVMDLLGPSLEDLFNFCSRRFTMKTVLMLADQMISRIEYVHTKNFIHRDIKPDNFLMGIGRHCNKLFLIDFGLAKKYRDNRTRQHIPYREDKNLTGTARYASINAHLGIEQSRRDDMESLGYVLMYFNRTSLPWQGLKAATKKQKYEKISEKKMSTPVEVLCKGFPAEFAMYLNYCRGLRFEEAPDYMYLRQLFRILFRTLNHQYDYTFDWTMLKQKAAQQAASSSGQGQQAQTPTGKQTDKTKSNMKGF
Mitogen-activated protein kinase kinase kinase 20, sequence (Q9NYL2 whole entry): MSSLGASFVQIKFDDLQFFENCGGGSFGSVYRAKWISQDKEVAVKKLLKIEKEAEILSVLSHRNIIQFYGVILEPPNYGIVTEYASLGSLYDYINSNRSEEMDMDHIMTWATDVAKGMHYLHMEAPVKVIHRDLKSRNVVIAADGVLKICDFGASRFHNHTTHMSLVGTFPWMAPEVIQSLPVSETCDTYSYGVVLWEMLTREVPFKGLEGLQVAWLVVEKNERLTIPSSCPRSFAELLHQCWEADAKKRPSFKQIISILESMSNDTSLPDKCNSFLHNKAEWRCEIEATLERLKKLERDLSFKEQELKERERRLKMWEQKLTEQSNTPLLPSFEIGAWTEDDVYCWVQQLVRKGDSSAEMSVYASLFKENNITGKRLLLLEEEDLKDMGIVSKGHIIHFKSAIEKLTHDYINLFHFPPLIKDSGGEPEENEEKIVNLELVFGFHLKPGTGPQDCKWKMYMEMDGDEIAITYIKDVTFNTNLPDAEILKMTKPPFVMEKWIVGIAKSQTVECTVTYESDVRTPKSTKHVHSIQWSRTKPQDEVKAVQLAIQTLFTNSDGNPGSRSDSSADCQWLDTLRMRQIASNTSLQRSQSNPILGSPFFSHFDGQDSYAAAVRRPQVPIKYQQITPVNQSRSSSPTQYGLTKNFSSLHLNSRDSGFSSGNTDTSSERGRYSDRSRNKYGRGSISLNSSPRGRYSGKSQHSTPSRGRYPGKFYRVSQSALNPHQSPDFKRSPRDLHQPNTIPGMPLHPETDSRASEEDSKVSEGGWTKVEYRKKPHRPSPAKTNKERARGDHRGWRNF

Row | SMILES | Kd (TGF-beta receptor type-1) | Kd [1] | Kd [2] | Kd [3] | Kd [4] | Kd [5] | Kd [6]
1 | S=C(NCc1ccc2c(c1)OCO2)N1CCN(c2ncnc3c2oc2ccccc23)CC1 [AMUVATINIB] | > 30 µM (inactive) | > 30 µM (inactive) | > 30 µM (inactive) | > 30 µM (inactive) | > 30 µM (inactive) | > 30 µM (inactive) | > 30 µM (inactive)
2 | NC[C@@](O)(c1ccc(Cl)cc1)c1ccc(-c2cn[nH]c2)cc1 [AT-13148] | > 30 µM (inactive) | > 30 µM (inactive) | > 30 µM (inactive) | > 30 µM (inactive) | > 30 µM (inactive) | > 30 µM (inactive) | > 30 µM (inactive)
3 | Cc1cc(Nc2nc(N[C@@H](C)c3ncc(F)cn3)ncc2Cl)n[nH]1 [AZD-1480] | > 30 µM (inactive) | > 30 µM (inactive) | > 30 µM (inactive) | 1.26 µM (active) | > 30 µM (inactive) | > 30 µM (inactive) | > 30 µM (inactive)
4 | COc1ccc(-c2ccc3ncc4c(c3c2)n(-c2ccc(N3CCNCC3)c(C(F)(F)F)c2)c(=O)n4C)cn1 [BGT-226 FREE BASE] | > 30 µM (inactive) | > 30 µM (inactive) | > 30 µM (inactive) | > 30 µM (inactive) | > 30 µM (inactive) | > 30 µM (inactive) | > 30 µM (inactive)
5 | COc1cccc(Nc2ncnn3ccc(CN4CC[C@@H](N)[C@H](O)C4)c23)c1 [BMS-690514] | 1.23 µM (active) | 1.37 µM (active) | > 30 µM (inactive) | > 30 µM (inactive) | > 30 µM (inactive) | 0.282 µM (active) | > 30 µM (inactive)
6 | CCOc1ccn(-c2ccc(F)cc2)c(=O)c1C(=O)Nc1ccc(Oc2ccnc(N)c2Cl)c(F)c1 [BMS-777607] | > 30 µM (inactive) | > 30 µM (inactive) | > 30 µM (inactive) | > 30 µM (inactive) | > 30 µM (inactive) | > 30 µM (inactive) | > 30 µM (inactive)
7 | COc1cc2nccc(Oc3ccc(NC(=O)C4(C(=O)Nc5ccc(F)cc5)CC4)cc3)c2cc1OC [CABOZANTINIB] | > 30 µM (inactive) | > 30 µM (inactive) | > 30 µM (inactive) | > 30 µM (inactive) | > 30 µM (inactive) | > 30 µM (inactive) | > 30 µM (inactive)
8 | c1cc(OCCN2CCCCC2)cc(-c2n[nH]c3ccc(-c4nc[nH]n4)cc23)c1 [CC-401] | > 30 µM (inactive) | 5.16 µM (active) | > 30 µM (inactive) | > 30 µM (inactive) | > 30 µM (inactive) | > 30 µM (inactive) | > 30 µM (inactive)
9 | CC1(COc2ccc3c(c2)ncn3-c2ccc3cccc(N4CCC(N)CC4)c3n2)COC1 [CRENOLANIB] | > 30 µM (inactive) | > 30 µM (inactive) | > 30 µM (inactive) | > 30 µM (inactive) | > 30 µM (inactive) | > 30 µM (inactive) | > 30 µM (inactive)
